We go through eleven compounds from patent publication US7294643B2, “UK-1 analogues: methods of preparation and use” (Board of Regents, The University of Texas System, priority 2002, dated 2007).

Like-named read-outs stand apart in the source and are kept apart here.

A short description of series [1]: alamarBlue cytotoxicity, range over three cell lines. It counts as cell-based. The conditions noted are these: human; range of concentrations required to inhibit growth of MCF-7, HT-29, and PC-3 cells by 50%. The method, then: (§1) Cytotoxicity Assays. Cell culture cytotoxicity assays were performed using the. alamarBlue method, as described by Ahmed et al., J. Immun. Methods 1994, 170, 211-224, which is incorporated herein by reference. Briefly, aliquots of 100 μL of cell suspension (1.0-2.5×10^3 cells) was placed in 96-well microtiter plates in an atmosphere of 5% CO2 at 37° C. After 24 hours, 100 μL of culture medium and 2 μL of compound in vehicle (culture media with 40% pyridine) or vehicle alone were added, and the plates incubated an additional 72 hours. The final pyridine concentration in all cases was 0.4%; at this pyridine concentration there was no affect on the growth of cells compared to cells in culture media without added pyridine. […] After the culture media had been removed from each well, 200 μL of fresh media and 20 μL of 90% alamarBlue reagent were added, followed by an additional 6 h incubation. The fluorescent intensity was measured using a Spectrafluor Plus plate reader with excitation at 530 nm and emission at 590 nm. Results are reported as IC50 values, the average concentration required to produce a decrease of fluorescent intensity of 50% relative to vehicle-treated controls in two separate determinations.
Background: The colour change of resazurin is a common sign of viable cells or microbes.

Series [2] relates to Staphylococcus aureus ATCC 29213. Description: Antimicrobial bioassay, S. aureus. It counts as cell-based. The conditions noted are these: Staphylococcus aureus, ATCC29213. As for the experimental part:
(§2) Antimicrobial Bioassay: Staphylococcus aureus ATCC 29213 and methicillin-resistant S. aureus ATCC 43300 (MRS) were obtained from the American Type Culture Collection (Rockville, Md.) and stored on agar slants at 4° C. until needed. Susceptibility testing was performed using a modified version of the NCCLS methods: “Methods for Dilution Antimicrobial Susceptibility Tests for Bacteria that Grow Aerobically,” M7-A4, Vol. 17, No. 2, NCCLS, (1997) and “Reference Method for Broth Dilution Antifungal Susceptibility Testing of Yeasts; Approved Standard,” M27-A, Vol. 17, No. 9, NCCLS, (1997), both of which are incorporated herein by reference. Microorganisms were subcultured prior to the assay by suspending cells from the slant in Eugon broth (BBL, Maryland) and incubating for 24 hours at 37° C. Inocula were prepared by diluting the subcultured organism in its incubation broth after comparison to the 0.5 McFarland Standard (a BaSO4 suspension) to afford final inocula ranges of S. aureus: 1.0-5.0×10^5 and MRS: 0.2-6.0×10^5 CFU/ml. Test compounds were dissolved in DMSO, serially-diluted using normal saline, and transferred in duplicate to 96 well flat-bottomed microtiter plates. The microbial inocula were added to the samples to achieve a final volume of 200 μl and final compound concentrations starting with 50 μg/ml. Drug [Ciprofloxacin (ICN Biomedicals, Ohio)] as well as growth and blank (media only) controls were added to each test plate. Plates were read at 630 nm using the EL-340 Biokinetics Reader (Bio-Tek Instruments, Vermont) prior to and after incubation at 37° C. for 24 hours. Percent growth was calculated and plotted versus concentration to afford the IC50, or sample concentration that affords 50% growth of the organism relative to controls.

Series [3] deals with methicillin-resistant S. aureus ATCC 43300. Nature of the series: Antimicrobial bioassay, methicillin-resistant S. aureus. It counts as cell-based, Staphylococcus aureus. The conditions noted are these: Staphylococcus aureus, ATCC43300. The method, then:
as §2

Series [4] concerns double-stranded DNA oligonucleotide. Description: DNA binding by ESI-MS. To be noted: ligand-DNA complex ions, presence or absence of added NiCl2. On the set-up: key: MetalDepend.: all ligand-DNA complex ions also contained a metal ion.; None: no ligand-DNA complex ions observed.; MetalIndepend.: ligand-DNA and ligand-DNA-metal ion complex ions observed.
Series [5] deals with MCF-7 cells. Nature of the series: alamarBlue cytotoxicity assay, MCF-7. It counts as cell-based. The conditions noted are these: Homo sapiens, MCF7; MCF-7, alamarBlue, 72 h. The method, then: as §1
Series [6] concerns HT-29 cells. Nature of the series: alamarBlue cytotoxicity assay, HT-29. To be noted: Homo sapiens; HT-29, alamarBlue, 72 h. It counts as cell-based. The method, then: as §1
Series [7] concerns HL60 cells. Nature of the series: alamarBlue cytotoxicity assay, HL60. It counts as cell-based, human. The conditions noted are these: Homo sapiens. The method, then:
as §1

For series [8], the system named is PC-3 cells. Nature of the series: alamarBlue cytotoxicity assay, PC-3. It counts as cell-based, human. The conditions noted are these: Homo sapiens, PC-3, 72 h, PC-3, alamarBlue. As for the experimental part: as §1
Series [9] in a line: alamarBlue cytotoxicity, range over four cell lines. It counts as cell-based. To be noted: human. As for the experimental part: as §1, with “hours.” for “hours. The final pyridine concentration in all cases was 0.4%; at this pyridine concentration there was no affect on the growth of cells compared to cells in culture media without added pyridine.”, “nm.” for “nm. Results are reported as IC50 values, the average concentration required to produce a decrease of fluorescent intensity of 50% relative to vehicle-treated controls in two separate determinations.”

Series [10] is described as follows: Metal ion binding by continuous variation, Mg2+. The conditions noted are these: for Association constant for metal ion binding: Mg^2+, methanol, 1:1 complex. As for the experimental part: (§3) Previous work indicated the metal ion binding mechanism of UK-1, so the method of continuous variation was used to determine the ability of selected UK-1analogues to bind a variety of metal ions. Methanolic solutions of UK-1 or UK-1 analogues and metal ion salts [Ca(NO3)2, Mg(NO3)2, Zn(NO3)2, or Fe(NO3)3] at various molar ratios, and 20 μM combined total concentration, were prepared and the absorbance at 418 nm was determined. […] Compound 2.1 does bind with Ca^2+ and Zn^2+ better than UK-1.
(§4) Continuous variation plots. A 100 μM solution of UK-1 or analogue and 100 AM solutions of Ca(NO3)2, Mg(NO3)2, Zn(NO3)2, or Fe(NO3)3 were prepared in methanol. From these stock solutions, 15 samples (1 mL) of varying mole fraction of the metal ion were prepared at a constant, combined concentration of 20 μM for the ligand and the metal ion. The change in absorbance was monitored from 500 to 200 nm for each sample using as a reference a 1 mL solution containing the same concentration of ligand as the sample being measured but without the metal ion. The maximum absorbance change was typically around 418 nm but varied somewhat for each metal ion. The absorbance at 418 nm was plotted as a function of the mole fraction of the metal ion and the maximum absorbance change was determined. The absorbance of a sample containing the metal ion concentration corresponding to this maximum change and a 15 fold excess of metal ion at this ligand concentration, subtracted from a reference containing the same concentration of ligand but no metal ion was used to normalize the curve and obtain the conditional formation constant as described in the paper to Likussar, W.; Boltz, D. F. Anal. Chem. 1971, 43, 1265-1272, which is incorporated herein by reference.

A short description of series [11]: Metal ion binding by continuous variation, Ca2+. To be noted: Ca^2+, methanol, 1:1 complex. The method, then: as §3, §4
Series [12] can be described thus: Metal ion binding by continuous variation, Zn2+. The conditions noted are these: for Association constant for metal ion binding: Zn^2+, methanol, 1:1 complex. As for the experimental part:
as §3, §4

The nature of series [13]: Metal ion binding by continuous variation, Fe3+. The conditions noted are these: Fe^3+, methanol, 1:1 complex. As for the experimental part: as §3, §4
In series [14] the test system is Pseudomonas aeruginosa. Description: Antimicrobial bioassay, P. aeruginosa. It counts as cell-based. To be noted: P. aeruginosa.
In series [15] the test system is Cryptococcus neoformans. Nature of the series: Antimicrobial bioassay, Cryptococcus neoformans. It counts as cell-based.
In series [16] the test system is Candida albicans. Nature of the series: Antimicrobial bioassay, Candida albicans. It counts as cell-based.
Series [17] concerns gram-positive or gram negative bacteria. To be noted: cited from earlier work.
The subject of series [18] is yeast, or fungi. The conditions noted are these: cited from earlier work.
[19] abbreviates: 50% growth of test organism, NA = no activity observed at concentrations up to 50 μg/mL, read-out: Antibacterial IC50 S. aureus.
Where [20] appears, read: 50% growth of test organism, NA = no activity observed at concentrations up to 50 μg/mL, read-out: Antibacterial IC50 Meth-resist S. aureus.
The mark [21] stands for this setting: Methacilline-resistant Staph. Aureus, growth inhibited by 50%, read-out: Staph. aureus IC50.

In the case of `O=C(O)c1cn(C2CC2)c2cc(N3CCNCC3)c(F)cc2c1=O` [Ciprofloxacin], the IC50 (commonly the concentration needed to halve the response being measured) at 72 h in [1] is more than 100 µM. Also, the IC50 in series [2] (setting [19]) was 0.45 µM; in [3] (setting [20]) it was 0.45 µM; in series [3] (setting [21]), 0.45 µg/mL. The “DNA-Binding ESI-MS” value in series [4] is “MetalIndepend.^f”.
Consider `COC(=O)c1cccc2[nH]c(-c3cccc4oc(-c5ccccc5O)nc34)nc12` [Compound 2.1, Methyl 2-[2-(2-hydroxyphenyl)-1,3-benzoxazol-4-yl]-1H-benz imidazole-4-carboxylate], for which the IC50 in [5] is more than 100 µM; in [6], more than 100 µM; in [7] (HL-60, 72 h, HL60, alamarBlue, 72 h), 70 µM; in series [8], more than 100 µM. Moreover, the IC50 at 72 h in series [9] was not below 70 µM. Besides, the “Association constant for metal ion binding” value in series [10] was 40000 M⁻¹; in [11] it was 100000 M⁻¹; in series [12], 3.2e+06 M⁻¹; in [13], 10000 M⁻¹.
Regarding `COC(=O)c1cccc2oc(-c3ccccc3OCc3ccccc3)nc12` [Compound 2.5, Methyl 2-[2-(benzyloxy)phenyl]-1,3-benzoxazole-4-carboxylate], in series [9], the IC50 at 72 h is more than 100 µM.
In the case of `O=C(O)c1cccc2oc(-c3ccccc3OCc3ccccc3)nc12` [Compound 2.6, 2-[2-(benzyloxy)phenyl]-1,3-benzoxazole-4-carboxylic acid], the IC50 at 72 h in [9] and in series [1] was more than 100 µM each time. For the same compound, the IC50 is 43 µM in series [2] (setting [19]), 29 µM in series [3] (setting [20]) and 29 µg/mL in series [3] (setting [21]). For the same compound, the “DNA-Binding ESI-MS” value in series [4] is “MetalIndepend.^f”.
In the case of `O=C(O)c1cccc2[nH]c(-c3ccccc3OCc3ccccc3)nc12` [Compound 2.9, 2-[2-(benzyloxy)phenyl]-1H-benzimidazole-4-carboxylic acid], in [9], the IC50 at 72 h is more than 100 µM. For the same compound, the 50% inhibitory concentration (IC50) in series [2] (setting [19]) and in series [3] (setting [20]) was 102 µM each time.
Regarding `COC(=O)c1cccc2oc(-c3ccccc3O)nc12` [Compound 2.13, Methyl 2-(2-hydroxyphenyl)-benzoxazole-4-carboxylate], the IC50 in series [5] was 1.5 µM; in series [6], 9.1 µM; in series [7] (HL-60, HL60), 5.7 µM; in series [8] it was 0.88 µM; in series [2] (S. aureus, read-out: IC50), more than 50 µg/mL; in series [3] (setting [21]), more than 50 µg/mL. Also, the half-inhibitory concentration (IC50) in [14], in [15] and in [16] was more than 50 µg/mL throughout. In [9], this compound returned a half-maximal inhibitory concentration (IC50) at 72 h of 0.88 to 9.1 µM. In addition, the “Association constant for metal ion binding” value turned out to be 320000 M⁻¹ in series [10], 6300 M⁻¹ in [11], 1.3e+06 M⁻¹ in series [12] and 7900 M⁻¹ in series [13]. In addition, in [4], the “DNA-Binding ESI-MS” value is listed as “MetalDepend.^d”.
Compound `COC(=O)c1cccc2nc(-c3ccccc3O)oc12` [Compound 2.16, Methyl 2-(2-Hydroxy-phenyl)-benzooxazole-7-carboxylate] displayed a half-maximal inhibitory concentration (IC50) at 72 h in series [9] of more than 100 µM.
Regarding `Oc1ccccc1-c1nc2ccccc2o1` [Compound 2.17, 2-(2′-hydroxyphenyl)benzoxazole], in series [9], the IC50 at 72 h is more than 100 µM. In [10] (result in words), the “Mg^2+ ion complexation” value was “does not appear to complex Mg^2+ ions”. The “Zn^2+ ion complexation” value in series [12] (result in words) is reported as “does appear to form complexes with Zn^2+”.
Turning to `O=C(O)c1cccc2oc(-c3cccc4oc(-c5ccccc5O)nc34)nc12` [DMUK-1], in series [17], the “activity against Gram-positive and Gram-negative bacteria” value is “have shown activity”.
Take `COC(=O)c1cccc2oc(-c3cccc4oc(-c5ccccc5OC)nc34)nc12` [MUK-1]: the “activity against Gram-positive and Gram-negative bacteria” value in series [17] is listed as “have shown activity”. Also, in [18], the “activity against yeast and filamentous fungi” value is listed as “active”.
Consider `Oc1ccccc1-c1nc2ccccc2o1` [drawing 10], for which, in series [1], the IC50 at 72 h is more than 100 µM. In addition, the 50% inhibitory concentration (IC50) in series [3] (setting [21]) was more than 50 µg/mL. Also, in series [4], the “DNA-Binding ESI-MS” value was “None^e”.
